Source: patent US7671057B2, “Therapeutic agent for type II diabetes comprising protease-inhibiting compound” (Ono Pharmaceutical Co., Ltd., priority 2004, dated 2010)
Marks after values point to notes of the source that are not given here.

Key:
Format in all cases: in vivo, mouse
[1] = system: KK-A^y/Ta Jcl mice; assay: Blood-sugar level after single and repeated oral administration (Example 1)
Experimental: On the day of initiation of administration (Day 1 of Administration), the obese/spontaneously type II diabetic mice; KK-A^y/Ta Jcl mice (male, 6-weeks aged, n=8) were treated through individual oral administration of the Test Compound 1 (ethyl N-allyl-N—[(E)-2-methyl-3-[4-(4-amidinophenoxycarbonyl)-phenyl]propenoyl]aminoacetate/methanesulfonate) of the present invention and the Control Compound 1 (5-{4-[2-(5-ethylpyridine-2-yl)ethoxy]benzyl}-1,3-thiazolidine-2,4-dione; pioglitazone) at the daily dose of 30 mg/kg, or the control medium (0.5% CMC), and blood was drawn from each animal through the orbital venous plexus 6 hours after administration. The blood-sugar levels were measured in accordance with the enzyme electrode method by use of Antosense II (manufactured by Daikin Kogyo KK of Japan). The said test was carried out while the animals were allowed free access to food and water.
Following the above-described single administration, the repeated, once-a-day forced oral administration of each compound was performed at the same daily dose for the total period of 14 consecutive days. On Days 3 and 11, blood was drawn in the same manner as described above 6 hours after administration of each compound, followed by measurement of the blood-sugar level.
(§1) The blood-sugar, TC, TG, IRI and IRG levels and the body weight were expressed as a mean value±standard deviation as calculated for each group of animals. With reference to the significance test between the group treated through administration of the medium and each group treated through administration of the compound, the F test was effected to analyze the data and then, the Student's t-test and Aspin-Welch's t-test were used in cases where the variance between the two groups was determined to be equal and unequal, respectively. Referring to the significance level, less than 5% (p<0.05) was considered significant, and the significance level was expressed as divided into the two events of less than 1% (**: p<0.01) and less than 5% (*: p<0.05).

[2] = system: KK-A^y/Ta Jcl mice; assay: Plasma TC, TG, blood-sugar, IRI and IRG levels 3 hours subsequent to the glucose-loading test (Example 1); conditions: 3 hours subsequent to glucose-loading test
Experimental: (§2) As from Day 14 afterwards, the animals after being fasted for 18 hours or more were loaded orally with a glucose solution (2 g/kg, 10 mL/kg), whereby the blood-sugar levels were measured before, and 120 min. after, the said glucose loading. Each of the compounds was given orally to the animals 3 hours prior to the glucose loading, and the whole blood was drawn from each of the animals under anesthesia. Each of the said blood samples was centrifuged to yield a blood plasma, and the resultant blood plasmas were all preserved under freezing in a ultra-low-temperature freezer for subsequent use in the below-described measurements.
(§3) The blood-sugar level, total cholesterol level (hereinafter referred to briefly as “TC level”) and triglyceride level (hereinafter referred to briefly as “TG level”) were detected individually in accordance with the hexokinase/G-6-PDH method, enzyme method and GPO/HDAOS method, and measured with use of Biochemical Auto-Analyzer (Model AU 400, manufactured by Olympus Co. of Japan). The plasma insulin level (hereinafter referred to briefly as “IRI level”) and the plasma glucagon level (hereinafter referred to briefly as “IRG level”) were detected individually with the ELISA method (Lebisinsulin Mouse Insulin Kit, produced by K.K. Shibayagi of Japan) and the ELISA method (YK090 Glucagon EIA Kit, produced by K.K. Yanaihara Kenkyuu-sho of Japan), followed by measurement with use of a plate reader (Immuno Mini NJ-2300, Nalge Nunc International K.K. of Japan).
as §1

[3] = system: KK-A^y/Ta Jcl mice; assay: Glucose loading test after repeated administration for 14 days (Example 1)
Experimental: as §2, §3, §1

[4] = Body weight after repeated administration for 14 days (Example 1); conditions: after repeated administration for 14 consecutive days
Experimental: Following the above-described single administration, the repeated, once-a-day forced oral administration of each compound was performed at the same daily dose for the total period of 14 consecutive days. […] The blood-sugar, TC, TG, IRI and IRG levels and the body weight were expressed as a mean value±standard deviation as calculated for each group of animals. With reference to the significance test between the group treated through administration of the medium and each group treated through administration of the compound, the F test was effected to analyze the data and then, the Student's t-test and Aspin-Welch's t-test were used in cases where the variance between the two groups was determined to be equal and unequal, respectively.

[5] = repeated once-a-day oral 30 mg/kg, 6 hours after administration

C=CCN(CC(=O)OCC)C(=O)/C(C)=C/c1ccc(C(=O)Oc2ccc(C(=N)N)cc2)cc1 [Test Compound 1, ethyl N-allyl-N—[(E)-2-methyl-3-[4-(4-amidinophenoxycarbonyl)-phenyl]propenoyl]aminoacetate/methanesulfonate]
Blood-sugar level before administration ([1]; Day 1, before single oral administration of 30 mg/kg (baseline)): 443.5 ± 19.6 mg/dL
Blood-sugar lowering action (in words) ([1]; repeated administration 30 mg/kg, Days 3 and 11): blood-sugar lowering action
Blood-sugar level Day 3 [1, 5]: 205.5 ± 7.0* mg/dL
Blood-sugar level Day 11 [1, 5]: 297.4 ± 18.4 mg/dL
Blood-sugar lowering action vs control medium group (in words) ([1]; single administration 30 mg/kg, 6 hours after administration): significant blood-sugar lowering action
Blood-sugar level 6 hrs. after administration ([1]; single oral administration, 30 mg/kg): 263.5 ± 11.0* mg/dL
Effect on IRG level (in words) ([2]; after 14 days): a decrease in the IRG level
Effect on IRI level (in words) ([2]; after 14 days): an increase in the IRI level
Effect on TC level (in words) ([2]; after 14 days): decreases
Effect on TG level (in words) ([2]; after 14 days): decreases
Effect on blood-sugar level (in words) ([2]; after 14 days): a decrease in the blood-sugar level
Blood-sugar level ([2]; after 14 days 30 mg/kg p.o.): 251.0 ± 7.2 mg/dL
IRG (plasma glucagon level) ([2]; after 14 days 30 mg/kg p.o.): 411 ± 31.5 pg/mL
IRI (plasma insulin level) ([2]; after 14 days 30 mg/kg p.o.): 1.74 ± 0.17 ng/mL
TC ([2]; after 14 days 30 mg/kg p.o.): 99.2 ± 3.6 mg/dL
TG ([2]; after 14 days 30 mg/kg p.o.): 81.4 ± 7.1 mg/dL
Blood-sugar level before glucose loading ([3]; after 14 days 30 mg/kg p.o., fasted, compound 3 hours prior to loading): 155.0 ± 5.2 mg/dL
Blood-sugar level 120 Min. after glucose loading ([3]; after 14 days 30 mg/kg p.o., glucose 2 g/kg orally): 235.0 ± 5.9* mg/dL
Blood-sugar lowering action in the glucose loading test vs medium control group (in words) ([3]; after repeated administration for 14 consecutive days): significant blood-sugar lowering action
Effect on impaired glucose tolerance (in words) ([3]; repeated forced oral administration, spontaneously diabetic mice): ameliorated impaired glucose tolerance
Effect on mouse body-weight vs control medium group (in words) [4]: did not show any changes in the mouse body-weight
Body weight ([4]; 30 mg/kg p.o.): 29.3 ± 0.3 g
